In PubChem BioAssay (NCI):
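48-hour exposure; five concentrations; linearly interpolated endpoints. TGI: total growth inhibition.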

How the values were obtained:
Test in all cases: inhibition of tumour cell growth, NCI panel, 48 h
[1] = tested on: 786-0 renal
[2] = tested on: A549 NSCLC
[3] = tested on: ACHN renal
[4] = tested on: BT-549 breast
[5] = tested on: CAKI-1 renal
[6] = tested on: CCRF-CEM leukemia
[7] = tested on: COLO 205 colon
[8] = tested on: DU-145 prostate
[9] = tested on: HCC-2998 colon
[10] = tested on: HCT-116 colon
[11] = tested on: HCT-15 colon
[12] = tested on: HL-60(TB) leukemia
[13] = tested on: HOP-62 NSCLC
[14] = tested on: HOP-92 NSCLC
[15] = tested on: HS 578T breast
[16] = tested on: HT29 colon
[17] = tested on: IGROV1 ovarian
[18] = tested on: KM12 colon
[19] = tested on: LOX IMVI melanoma
[20] = tested on: M14 melanoma
[21] = tested on: MALME-3M melanoma
[22] = tested on: MCF7 breast
[23] = tested on: MDA-MB-231 breast
[24] = tested on: MDA-MB-435
[25] = tested on: MDA-N
[26] = tested on: MOLT-4 leukemia
[27] = tested on: NCI-H226 lung
[28] = tested on: NCI-H23 lung
[29] = tested on: NCI-H460 lung
[30] = tested on: NCI-H522 lung
[31] = tested on: NCI/ADR-RES ovarian
[32] = tested on: OVCAR-3 ovarian
[33] = tested on: OVCAR-4 ovarian
[34] = tested on: OVCAR-5 ovarian
[35] = tested on: OVCAR-8 ovarian
[36] = tested on: PC-3 prostate
[37] = tested on: RPMI-8226 leukemia
[38] = tested on: SF-268 CNS
[39] = tested on: SF-295 CNS
[40] = tested on: SF-539 CNS
[41] = tested on: SK-MEL-2 melanoma
[42] = tested on: SK-MEL-28 melanoma
[43] = tested on: SK-MEL-5 melanoma
[44] = tested on: SK-OV-3 ovarian
[45] = tested on: SN12C renal
[46] = tested on: SNB-19 CNS
[47] = tested on: SNB-75 CNS
[48] = tested on: SR leukemia
[49] = tested on: SW-620 colon
[50] = tested on: T-47D breast
[51] = tested on: TK-10 renal
[52] = tested on: U251 CNS
[53] = tested on: UACC-257 melanoma
[54] = tested on: UACC-62 melanoma
[55] = tested on: UO-31 renal
[56] = tested on: A498 renal
[57] = tested on: EKVX NSCLC
[58] = tested on: K-562 leukemia
[59] = tested on: RXF 393 renal

## CC(=O)OCC1OC(n2cnc(C(N)=S)c2N)C(OC(C)=O)C1OC(C)=O (centres undefined)
[1]
  TGI: > 100 µM
[2]
  TGI: > 100 µM
[3]
  TGI: > 100 µM
[4]
  TGI: > 100 µM
[5]
  TGI: > 100 µM
[6]
  TGI: > 100 µM
[7]
  TGI: > 100 µM
[8]
  TGI: > 100 µM
[9]
  TGI: > 100 µM
[10]
  TGI: > 100 µM
[11]
  TGI: > 100 µM
[12]
  TGI: > 100 µM
[13]
  TGI: > 100 µM
[14]
  TGI: > 100 µM
[15]
  TGI: > 100 µM
[16]
  TGI: > 100 µM
[17]
  TGI: > 100 µM
[18]
  TGI: > 100 µM
[19]
  TGI: > 100 µM
[20]
  TGI: > 100 µM
[21]
  TGI: > 100 µM
[22]
  TGI: > 100 µM
[23]
  TGI: > 100 µM
[24]
  TGI: > 100 µM
[25]
  TGI: > 100 µM
[26]
  TGI: > 100 µM
[27]
  TGI: > 100 µM
[28]
  TGI: > 100 µM
[29]
  TGI: > 100 µM
[30]
  TGI: > 100 µM
[31]
  TGI: > 100 µM
[32]
  TGI: > 100 µM
[33]
  TGI: > 100 µM
[34]
  TGI: > 100 µM
[35]
  TGI: > 100 µM
[36]
  TGI: > 100 µM
[37]
  TGI: > 100 µM
[38]
  TGI: > 100 µM
[39]
  TGI: > 100 µM
[40]
  TGI: > 100 µM
[41]
  TGI: > 100 µM
[42]
  TGI: > 100 µM
[43]
  TGI: > 100 µM
[44]
  TGI: > 100 µM
[45]
  TGI: > 100 µM
[46]
  TGI: > 100 µM
[47]
  TGI: > 100 µM
[48]
  TGI: > 100 µM
[49]
  TGI: > 100 µM
[50]
  TGI: > 100 µM
[51]
  TGI: > 100 µM
[52]
  TGI: > 100 µM
[53]
  TGI: > 100 µM
[54]
  TGI: > 100 µM
[55]
  TGI: > 100 µM

## Cc1nc2ccccc2n1COC(Cn1ccnc1)c1ccc(Cl)cc1Cl (centres undefined)
[1]
  TGI: > 100 µM
[56]
  TGI: > 100 µM
[2]
  TGI: > 100 µM
[3]
  TGI: > 100 µM
[4]
  TGI: 91.2 µM
[5]
  TGI: 39 µM
[6]
  TGI: > 100 µM
[7]
  TGI: > 100 µM
[8]
  TGI: > 100 µM
[57]
  TGI: > 100 µM
[9]
  TGI: > 100 µM
[10]
  TGI: > 100 µM
[11]
  TGI: > 100 µM
[12]
  TGI: 85.4 µM
[13]
  TGI: > 100 µM
[14]
  TGI: 77.6 µM
[15]
  TGI: > 100 µM
[16]
  TGI: > 100 µM
[17]
  TGI: > 100 µM
[58]
  TGI: > 100 µM
[18]
  TGI: > 100 µM
[19]
  TGI: > 100 µM
[20]
  TGI: > 100 µM
[21]
  TGI: > 100 µM
[22]
  TGI: > 100 µM
[23]
  TGI: > 100 µM
[24]
  TGI: > 100 µM
[25]
  TGI: > 100 µM
[26]
  TGI: > 100 µM
[28]
  TGI: > 100 µM
[29]
  TGI: 46.4 µM
[30]
  TGI: > 100 µM
[31]
  TGI: > 100 µM
[32]
  TGI: > 100 µM
[33]
  TGI: > 100 µM
[34]
  TGI: > 100 µM
[35]
  TGI: > 100 µM
[36]
  TGI: > 100 µM
[37]
  TGI: > 100 µM
[38]
  TGI: > 100 µM
[39]
  TGI: > 100 µM
[40]
  TGI: > 100 µM
[41]
  TGI: > 100 µM
[42]
  TGI: > 100 µM
[43]
  TGI: 53.5 µM
[45]
  TGI: > 100 µM
[46]
  TGI: > 100 µM
[47]
  TGI: > 100 µM
[48]
  TGI: > 100 µM
[49]
  TGI: > 100 µM
[50]
  TGI: > 100 µM
[51]
  TGI: > 100 µM
[52]
  TGI: > 100 µM
[53]
  TGI: > 100 µM
[54]
  TGI: > 100 µM
[55]
  TGI: > 100 µM

## CC(C)=CCC/C(C)=C/CC/C(C)=C/CC/C(C)=C/C=C/C=C(\C)CC/C=C(\C)CC/C=C(\C)CCC=C(C)C
[1]
  TGI: 52.3 µM
[56]
  TGI: > 100 µM
[2]
  TGI: > 100 µM
[3]
  TGI: 53 µM
[4]
  TGI: > 100 µM
[5]
  TGI: 32.1 µM
[6]
  TGI: 59.8 µM
[7]
  TGI: > 100 µM
[8]
  TGI: > 100 µM
[57]
  TGI: > 93.3 µM
[9]
  TGI: > 100 µM
[10]
  TGI: > 100 µM
[11]
  TGI: > 100 µM
[12]
  TGI: 4.96 µM
[13]
  TGI: > 100 µM
[14]
  TGI: > 75.5 µM
[15]
  TGI: > 100 µM
[16]
  TGI: > 100 µM
[17]
  TGI: 36.4 µM
[58]
  TGI: > 31.6 µM
[18]
  TGI: 63.3 µM
[19]
  TGI: 49.9 µM
[20]
  TGI: > 100 µM
[21]
  TGI: > 100 µM
[22]
  TGI: > 100 µM
[23]
  TGI: > 100 µM
[24]
  TGI: > 100 µM
[25]
  TGI: > 100 µM
[26]
  TGI: 49 µM
[27]
  TGI: > 100 µM
[28]
  TGI: > 100 µM
[29]
  TGI: > 58.4 µM
[30]
  TGI: 31.4 µM
[31]
  TGI: > 82.9 µM
[32]
  TGI: > 100 µM
[33]
  TGI: > 100 µM
[34]
  TGI: > 100 µM
[35]
  TGI: > 88.2 µM
[36]
  TGI: > 100 µM
[37]
  TGI: > 100 µM
[59]
  TGI: > 100 µM
[38]
  TGI: > 81.4 µM
[39]
  TGI: > 100 µM
[40]
  TGI: > 100 µM
[41]
  TGI: > 100 µM
[42]
  TGI: > 100 µM
[43]
  TGI: > 79.9 µM
[44]
  TGI: > 100 µM
[45]
  TGI: > 55.3 µM
[46]
  TGI: > 100 µM
[47]
  TGI: > 100 µM
[49]
  TGI: > 100 µM
[50]
  TGI: > 100 µM
[51]
  TGI: > 74.3 µM
[52]
  TGI: > 100 µM
[53]
  TGI: > 100 µM
[54]
  TGI: > 100 µM
[55]
  TGI: 54.8 µM
